Assay results as given in patent US20200054651A1, “COMPOSITIONS AND METHODS FOR MODULATING PPP2R1A” (The Regents of the University of California, priority 2017, published 2020).

Tests used:
[1] = target: T1, CLIC4 C35 (Homo sapiens, UniProt Q9Y696); assay: isoTOP-ABPP after in situ treatment of 231MFP cells; assay type: binding; conditions: 100 μM, 4 h in 231MFP cells in situ
T1 construct: IsoTOP-ABPP analysis of DKM 2-90 treatment in 231MFP cells in situ; endogenous in cells; host or cells: 231MFP cells
Description: IsoTOP-ABPP studies were performed using the methods described in “Nature 534(7608), 570-574 (2016)” by Backus K. M., et al. and “Nature 468(7325), 790-795 (2010)” by Weerapana E., et al. […] Then, IAyne (iodoacetamide-alkyne) labeling was performed for 1 hour at room temperature. CuAAC was used by sequential addition of tris(2-carboxyethyl)phosphine (1 mM), tris[(1-benzyl-1H-1,2,3-triazol-4-yl)methyl]amine (34 μM), copper (II) sulfate (1 mM), and biotin-linker-azide where the linker was functionalized with a TEV protease recognition sequence along with an isotopically light or heavy valine for treatment of control or treated proteome, respectively. After click reactions, proteomes were precipitated by centrifugation at 6500×g, washed in ice-cold methanol, combined in a 1:1 control/treated ratio, washed again, then denatured and re-solubilized by heating in 1.2% SDS/PBS to 80° C. for 5 minutes. Insoluble components were precipitated by centrifugation at 6500×g and soluble proteome was diluted in 0.2% SDS/PBS (5 ml). Labeled proteins were bound to avidin-agarose beads (170 μl re-suspended beads/sample) while rotating overnight at 4° C. Bead-linked proteins were enriched by washing three times each in PBS and water, then re-suspended in urea/PBS (6 M), reduced in TCEP (1 mM), alkylated with iodoacetamide (18 mM), then washed and re-suspended in urea/PBS (2 M), and finally trypsinized overnight with 0.5 μg/μl sequencing grade trypsin. Tryptic peptides were eluted off. Beads were washed in PBS (3 times) and water (3 times), washed in TEV buffer solution (water, TEV buffer, 100 μM dithiothreitol), and re-suspended in buffer with Ac-TEV protease and then incubated overnight. Peptides were diluted in water, acidified with formic acid (1.2 M), and prepared for analysis.
Peptides from all proteomic experiments were pressure-loaded onto an Agilent 600 series RP-HPLC system equipped with a capillary tubing (250 mm) packed with Aqua C18 reverse-phase resin (4 cm). The system was previously equilibrated with a gradient (0% B to 100% B over 10 minutes, 100% B for 5 minutes, then 0% B for 5 minutes; buffer A: 95:5 water:acetonitrile, 0.1% formic acid; buffer B: 80:20 acetonitrile:water, 0.1% formic acid). The samples were then attached using a MicroTee PEEK 360 μm fitting to a laser pulled column (13 cm) packed with Aqua C18 reverse-phase resin (10 cm) and strong-cation exchange resin (3 cm) for isoTOP-ABPP studies. Samples were analyzed using an Q Exactive Plus mass spectrometer using a 5-step Multidimensional Protein Identification Technology (MudPIT) program. The system was run using a gradient (5% B to 55% B; buffer A: 95:5 water:acetonitrile, 0.1% formic acid; buffer B: 80:20 acetonitrile:water, 0.1% formic acid), along with a salt bump feeding aqueous ammonium acetate (500 mM) at an increment of 0%, 25%, 50%, 80%, to 100%. Data was collected in data-dependent acquisition mode with dynamic exclusion enabled (60 sec). One full MS scan (400-1800 m/z) (MS1 scan) was conducted, followed by MS2 scan (ITMS) (15 times) of the most abundant ions. Heated capillary temperature was set to 200° C. and the nanospray voltage was set to 2.75 kV.
Data was extracted in the form of MS1 and MS2 files using Raw Extractor 1.9.9.2 and searched against the Uniprot […] database using ProLuCID search methodology in IP2 v.3, described in “J Proteomics 129:16-24 (2015)” by Xu T, et al. Cysteine residues were searched with a static modification for carboxyaminomethylation (+m/z 57.02146), up to two differential modifications for methionine oxidation, and either the light or heavy TEV tags (+m/z 464.28596 or +m/z 470.29977, respectively). Peptides were required to have at least one tryptic end and to contain the TEV modification. ProLUCID data was filtered through DTASelect to achieve a peptide false-positive rate below 1%. […]

[2] = test system: 231MFP tumor xenograft; assay: 231MFP tumor xenograft growth; assay type: in vivo, immune-deficient SCID mice; conditions: 50 mg/kg ip, daily, initiated 15 days after tumor xenograft injection
[3] = test system: MCF7 cells; assay: MCF7 serum-free cell survival; assay type: cell-based; conditions: 10 μM, 48 h
[4] = target: T2, C328 on vimentin (Homo sapiens, UniProt P08670); assay: Competitive isoTOP-ABPP in 231MFP proteomes in vitro; assay type: binding; conditions: 10 μM, in vitro treatment of 231MFP proteomes
T2 construct: in vitro treatment of 231MFP breast cancer cell proteomes with withaferin A; endogenous in cells; host or cells: 231MFP breast cancer cells
Description: IsoTOP-ABPP studies were performed using the methods described in “Nature 534(7608), 570-574 (2016)” by Backus K. M., et al. and “Nature 468(7325), 790-795 (2010)” by Weerapana E., et al. Proteome samples diluted in PBS were treated with Withaferin A or vehicle for 30 minutes at 37° C. Then, IAyne (iodoacetamide-alkyne) labeling was performed for 1 hour at room temperature. CuAAC was used by sequential addition of tris(2-carboxyethyl)phosphine (1 mM), tris[(1-benzyl-1H-1,2,3-triazol-4-yl)methyl]amine (34 μM), copper (II) sulfate (1 mM), and biotin-linker-azide where the linker was functionalized with a TEV protease recognition sequence along with an isotopically light or heavy valine for treatment of control or treated proteome, respectively. After click reactions, proteomes were precipitated by centrifugation at 6500×g, washed in ice-cold methanol, combined in a 1:1 control/treated ratio, washed again, then denatured and re-solubilized by heating in 1.2% SDS/PBS to 80° C. for 5 minutes. Insoluble components were precipitated by centrifugation at 6500×g and soluble proteome was diluted in 0.2% SDS/PBS (5 ml). Labeled proteins were bound to avidin-agarose beads (170 μl re-suspended beads/sample) while rotating overnight at 4° C. Bead-linked proteins were enriched by washing three times each in PBS and water, then re-suspended in urea/PBS (6 M), reduced in TCEP (1 mM), alkylated with iodoacetamide (18 mM), then washed and re-suspended in urea/PBS (2 M), and finally trypsinized overnight with 0.5 μg/μl sequencing grade trypsin. Tryptic peptides were eluted off. Beads were washed in PBS (3 times) and water (3 times), washed in TEV buffer solution (water, TEV buffer, 100 μM dithiothreitol), and re-suspended in buffer with Ac-TEV protease and then incubated overnight. Peptides were diluted in water, acidified with formic acid (1.2 M), and prepared for analysis.
Peptides from all proteomic experiments were pressure-loaded onto an Agilent 600 series RP-HPLC system equipped with a capillary tubing (250 mm) packed with Aqua C18 reverse-phase resin (4 cm). The system was previously equilibrated with a gradient (0% B to 100% B over 10 minutes, 100% B for 5 minutes, then 0% B for 5 minutes; buffer A: 95:5 water:acetonitrile, 0.1% formic acid; buffer B: 80:20 acetonitrile:water, 0.1% formic acid). The samples were then attached using a MicroTee PEEK 360 μm fitting to a laser pulled column (13 cm) packed with Aqua C18 reverse-phase resin (10 cm) and strong-cation exchange resin (3 cm) for isoTOP-ABPP studies. Samples were analyzed using an Q Exactive Plus mass spectrometer using a 5-step Multidimensional Protein Identification Technology (MudPIT) program. […]

[5] = test system: HCC38 cells; assay: HCC38 serum-free cell survival; assay type: cell-based; conditions: 10 μM, 48 h

T2 sequence (P08670 whole entry): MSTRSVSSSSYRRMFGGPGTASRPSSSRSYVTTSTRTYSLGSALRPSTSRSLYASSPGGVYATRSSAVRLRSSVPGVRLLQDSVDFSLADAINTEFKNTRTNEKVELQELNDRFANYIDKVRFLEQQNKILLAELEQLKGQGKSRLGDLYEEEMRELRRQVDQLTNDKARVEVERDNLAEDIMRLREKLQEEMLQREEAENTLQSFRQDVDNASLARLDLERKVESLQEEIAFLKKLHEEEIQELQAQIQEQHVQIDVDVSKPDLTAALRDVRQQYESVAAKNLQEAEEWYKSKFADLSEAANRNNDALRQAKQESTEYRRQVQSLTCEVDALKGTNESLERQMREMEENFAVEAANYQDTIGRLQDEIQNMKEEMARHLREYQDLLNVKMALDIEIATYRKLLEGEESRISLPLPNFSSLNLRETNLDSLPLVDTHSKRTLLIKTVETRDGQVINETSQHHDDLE
T1 sequence (Q9Y696 whole entry): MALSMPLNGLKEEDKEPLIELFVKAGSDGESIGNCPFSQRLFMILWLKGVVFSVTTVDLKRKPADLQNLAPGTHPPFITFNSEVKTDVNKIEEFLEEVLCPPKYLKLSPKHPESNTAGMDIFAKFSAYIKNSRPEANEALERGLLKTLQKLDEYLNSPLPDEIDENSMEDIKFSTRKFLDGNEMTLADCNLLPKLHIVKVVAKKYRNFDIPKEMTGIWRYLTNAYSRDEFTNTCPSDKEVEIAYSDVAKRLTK

O=C(CCl)Nc1ccc2c(c1)OCCO2 [DKM 2-90, 2-Chloro-N-(2,3-dihydrobenzo[β][1,4]dioxin-6-yl)acetamide]
isotopically light to heavy ratio, CLIC4 C35 [1]: > 5

O=C(CCl)N(Cc1ccccc1)c1ccc2c(c1)OCCO2 [JNS 1-40, N-benzyl-2-chloro-N-(2,3-dihydrobenzo[b][1,4]dioxin-6-yl)acetamide]
231MFP tumor xenograft growth [2]: significantly attenuated tumor growth

CC1=C(CO)C(=O)O[C@@H]([C@@H](C)[C@H]2CC[C@H]3[C@@H]4C[C@H]5O[C@]56[C@@H](O)C=CC(=O)[C@]6(C)[C@H]4CC[C@]23C)C1 [withaferin A, reference compound]
serum-free cell survival [3]: impairs
light to heavy ratio, C328 on vimentin [4]: 1.0
serum-free cell survival [5]: impairs
